PMC12091851, “Replacing a Cereblon Ligand by a DDB1 and CUL4 Associated Factor 11 (DCAF11) Recruiter Converts a Selective Histone Deacetylase 6 PROTAC into a Pan‐Degrader” (Chemmedchem, 2025)
Where two headings read alike, the source gives them in different places.

Assays:
HDAC1 = HDAC1 (Homo sapiens, UniProt Q13547); assay: Simple Western immunoassay, HDAC1 levels in MM.1S cell lysates; format: cell-based; design: endogenous in cells; host or cells: MM.1S; settings: MM.1S cells, 10 μM, 24 h
Experimental: Figure 3 Initial degradation screening of HDAC1 and 6 by DCAF11‐recruiting PROTACs by Simple Western™ immunoassay analysis of MM.1S cell lysates. MM.1S cells were treated with the indicated compound (10 μM) or vehicle (DMSO) for 24 h. […] Bottom: Representative images from a total of n=3 biological replicates, labeled with spacer type; w/o: without spacer.
2. Biological Experiments
No unexpected or unusually high safety hazards were encountered.
The human multiple myeloma cell line MM.1S (CRL-2974) was obtained from American Type Culture Collection (ATCC, Manassas, VA, USA). The semi-adherent cells were cultivated in RPMI 1640 medium (Catalog#21875-034, Gibco, ThermoFisher Scientific Inc., Waltham, MA, USA) supplemented with 10% FBS (PAN Biotech GmbH; Aidenbach, Germany), 100 IU/mL penicil lin, 0.1 mg/mL streptomycin (PAN Biotech GmbH) and 1 mM sodium pyruvate (ThermoFisher Scientific Inc.). […]
(PAN Biotech GmbH). All cells were cultured at 37 °C in a 5% CO2 atmosphere. Incubation times, as part of assay protocols, were performed under these conditions as well. The semi-adherent MM.1S were detached mechanically by using a cell scraper and the adhered […] were trypsinased by trypsin/EDTA (0.05%/0.02% in DPBS, PAN Biotech GmbH) whereas the U-87MG were detached by […]
2.2. Simple Western™ Immunoassay
For the cell lysates, MM.1S (0.5 × 10^6 cells/mL) or U-87MG (0.18 × 10^6 cells/mL) cells were seeded and incubated with the indicated concentration of compound or vehicle (DMSO) for the given time. The adherent cells were cultured for 24 h under cell culture conditions for attachment before treatment. Cell lysis was performed with Cell Extraction Buffer (10 mM Tris, pH 7.4, 100 mM NaCl, 1 mM EDTA, […]
SDS, 0.5% deoxycholate; Catalog# FNN0011, Thermo Fisher Scientific Inc., Waltham, MA, USA) with addition of Halt Protease Inhibitor Cocktail (100×) (Catalog# 78429, Life Technologies GmbH, Carlsbad, CA, USA) and phenylmethanesulfonyl fluoride (Catalog# 10837091001, Sigma-Aldrich, St.
Louis, MO, USA) according to manufacturer´s instructions. Protein content was determined by Pierce™ BCA Protein Assay Kit (Catalog# 23225, Thermo Fisher Scientific Inc.) according to manufacturer´s guidelines. Cell lysates were diluted to a final concentration of 1 mg/mL and denatured according to manufacturer’s guidelines. Anti-HDAC1 (Catalog# 5356S, Cell Signaling Technology, Denver, MA, USA), anti-HDAC6 (Catalog#7558S, Cell Signaling Technology) and anti-GAPDH (Catalog# 2118S, […]
Fluorescence Separation 8x25 Capillary Cartridges (Catalog# SM-FL004-1, Protein Simple, Bio-Techne, Minneapolis, MN, USA) were used for separation and the Anti-Mouse Detection Module (Catalog# DM-002, Protein Simple) was used for detection with addition of 20x Anti-Rabbit HRP […]
Conjugate (Catalog# 043-426, Protein Simple) according to manufacturer´s instructions. The assay was performed with the Jess Simple Western System (catalog# 004-650, Protein Simple), according to manufacturer´s settings. Evaluation and quantification was performed with the compass software (6.2.0, Protein Simple). GraphPad Prism (GraphPad Software, San Diego, CA, USA) was used for normalization, statistical analysis and bar graph creation. Significance testing was performed with a one-way analysis of variance (ANOVA). […]
of each mean compared to a reference mean value. […]
AMC (Catalog# 233691-67-3, BLD pharma) was prepared with and without IGEPAL CA-630 (0.5%, Catalog# J61055, Alfa Aesar). 10 µL of the substrate solution was added and incubated for 3 h under cell culture conditions. The reaction was stopped with 100 µL of stop solution (50 mM Tris-HCl, […]
Trypsin) and incubated for 1.5 h under cell culture conditions. The fluorescence signal was measured by a FLUOstar OPTIMA microplate reader (BMG labtech, Ortenburg, Germany) at excitation of λ = 355 nm and emission of λ = 460 nm. All Compounds were tested in two independent experiments in duplicates and IC50 was determined by nonlinear regression with GraphPad Prim.

MM.1S cells [1] = assay: CellTiter-Glo cell viability assay; format: cell-based, human; settings: 72 h; for EC50: Homo sapiens, MM1.S
Experimental: For this purpose, the dilution series were prepared in 200-fold concentration in DMSO and further diluted to 10-fold concentration in medium. The final DMSO concentration was 0.5%. The toxicity of compounds was determined after 72 h using the CellTiter-Glo 2.0 Cell Viability Assay (Promega, Madison, WI, USA, #G9242) according to the manufacturer´s protocol. Subsequently, the luminescence was measured using a Tecan Spark (Tecan Group AG, Maennedorf, Swiss) and the half maximal effective concentration (EC50) was determined by plotting dose response curves and nonlinear regression with GraphPad Prism (GraphPad Software, San Diego, CA, USA). […] Cellular HDAC Inhibition Assay […] with minor changes. […] The DMSO-stock solutions were used to perform a serial dilution in DMSO. […] 10 µL of the substrate solution was added and incubated for 3 h under cell culture conditions. […] S8

MM.1S cells [2] = assay: Cell cycle analysis by PI staining and flow cytometry; format: cell-based, human; settings: 10 μM, 48 h
Experimental: GraphPad Prism (GraphPad Software). […]
Biotech), resuspended in 1 mL EtOH/D PBS (7/3 v/v), and fixed for 30 min at 4 °C. The samples were rehydrated with DPBS and treated with 5 µg /mL RNAse ( Catalog# EN0531 , ThermoFisher Scientific Inc.) for 15 min at room temperature. The staining was performed with 3 µM propidium iodide (in DPBS) for 15 min at room temperature and analyzed by flow cytometry ( Guava easyCyteTM, Luminex, […]
Lakes, NJ, USA), using the Watson Pragmatic algorithm.[6] GraphPad Prism (GraphPad Software) was used for normalization, statistical analysis, and bar graph creation. Significance testing was performed with a one-way analysis of variance (ANOVA). Dunnett’s post-hoc test was employed to obtain […]
Final DMSO concentration was 0.1%.
Staining was performed with
Fluorescence was measured by flow cytometry (Guava® easyCyteTM, Luminex, Austin, Texas). GraphPad Prism (GraphPad Software) was used for normalization, statistical analysis, and bar graph creation. Significance testing was performed with a one-way analysis of variance (ANOVA).
Subsequently, cells were harvested and […]
After 30 minutes of incubation at […]
Dunnett’s post-hoc test was employed

MDA-MB-231 cells = assay: Clonogenic growth assay; format: cell-based, human; settings: 10 μM for 48 h, nine days of growth
Experimental: Figure 9 Clonogenic growth assay of DCAF11‐recruiting PROTACs. MDA‐MB‐231 cells were treated with 10 μM of the respective compound or vehicle (DMSO) for 48 hours. (A) Representative images of crystal violet stained colonies after nine days of growth. (B) Quantification of counted colonies, presented as mean ± standard deviation of three biological replicates, each performed in triplicates. Significance of quantification compared to vehicle: ns=p≥0.05; **=p≤0.01 and ***=p≤0.001. […]
Subsequently, cells were harvested and
plated in 6-well plates at a density of 750 cells per well in triplicates. The cell culture medium was
changed after five days. Nine days after plating, the colonies were carefully washed with 500 µL DPBS
and stained with 500 µL crystal violet solution (0.5% in methanol). After 30 minutes of incubation at
room temperature, the wells were gently rinsed with deionized water. After counting the formed
colonies, GraphPad Prism (GraphPad Software) was used for bar graph creation. Significance testing
was performed with a one-way analysis of variance (ANOVA). Dunnett’s post-hoc test was employed
to obtain significance levels of each mean compared to a reference mean value.

[3] = MM.1S cells, n.e.: no effect (≤25% effect up to 50 μM), read-out: EC50 antiproliferative activity
[4] = MM.1S cells, n.e.: no effect (≤25% effect up to 50 μM)

Sequence of HDAC1 (Q13547 whole entry): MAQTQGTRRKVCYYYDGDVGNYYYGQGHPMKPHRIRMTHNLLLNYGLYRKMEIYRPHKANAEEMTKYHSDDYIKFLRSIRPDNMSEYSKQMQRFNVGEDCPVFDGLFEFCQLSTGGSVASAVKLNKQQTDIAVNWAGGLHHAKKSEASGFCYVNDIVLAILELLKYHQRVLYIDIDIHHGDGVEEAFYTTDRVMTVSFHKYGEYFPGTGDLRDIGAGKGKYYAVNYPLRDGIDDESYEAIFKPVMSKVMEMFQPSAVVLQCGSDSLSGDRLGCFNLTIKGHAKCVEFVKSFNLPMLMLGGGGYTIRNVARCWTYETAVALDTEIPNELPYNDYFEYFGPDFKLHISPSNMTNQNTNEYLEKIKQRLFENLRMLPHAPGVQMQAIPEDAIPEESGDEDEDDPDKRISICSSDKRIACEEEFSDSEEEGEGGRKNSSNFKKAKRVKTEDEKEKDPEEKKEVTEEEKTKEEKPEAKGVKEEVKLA

SMILES	EC50 (MM.1S cells [1]; [3]) [µM]	further results
O=C(CCCCCCNC(=O)c1ccc(NC(=O)CCOCCOCCOCCOCCN(C(=O)CCl)C(C(=O)NCc2ccccc2)c2ccc(Cl)c(Cl)c2)cc1)NO (stereo not shown) [Compound 1e]	7.3 ± 0.5	reduction of HDAC1 levels (HDAC1): 51%
O=C(CCCCCCNC(=O)c1ccc(NC(=O)CCCCCCCN(C(=O)CCl)C(C(=O)NCc2ccccc2)c2ccc(Cl)c(Cl)c2)cc1)NO (stereo not shown) [Compound 1i]	12 ± 2	–
O=C(CCCCCCNC(=O)c1cnc(N(c2ccccc2)c2ccccc2)nc1)NO [Ricolinostat, ricolinostat, reference compound]	–	EC50 (MM.1S cells [1]; read-out: EC50 MM.1S): 3 ± 0.6 µM; effect on cell cycle phases (MM.1S cells [2]): stronger effects on the different phases of the cell cycle; reduction of colonies (clonogenic growth) (MDA-MB-231 cells): less pronounced and not significant
O=C(CCCCCCNC(=O)c1ccc(NC(=O)c2ccc(N(C(=O)CCl)C(C(=O)NCc3ccccc3)c3ccc(Cl)c(Cl)c3)cc2)cc1)NO (stereo not shown) [Compound 1a]	34 ± 6	EC50 antiproliferative activity (MM.1S cells [1]; [4]): diminished antiproliferative activity
O=C(CCCCCCNC(=O)c1ccc(NC(=O)CCCN(C(=O)CCl)C(C(=O)NCc2ccccc2)c2ccc(Cl)c(Cl)c2)cc1)NO (stereo not shown) [Compound 1g]	16 ± 2	–
O=C(CCCCCCNC(=O)c1ccc(NC(=O)CCOCCOCCN(C(=O)CCl)C(C(=O)NCc2ccccc2)c2ccc(Cl)c(Cl)c2)cc1)NO (stereo not shown) [Compound 1c]	6.2 ± 0.7	–
O=C(CCCCCCNC(=O)c1ccc(NC(=O)CN(C(=O)CCl)C(C(=O)NCc2ccccc2)c2ccc(Cl)c(Cl)c2)cc1)NO (stereo not shown) [Compound 1f]	19 ± 3	–
O=C(CCCCCCNC(=O)c1ccc(NC(=O)CCOCCOCCOCCN(C(=O)CCl)C(C(=O)NCc2ccccc2)c2ccc(Cl)c(Cl)c2)cc1)NO (stereo not shown) [Compound 1d]	6.9 ± 0.6	–
O=C(CCCCCCNC(=O)c1ccc(NC(=O)CCCCCN(C(=O)CCl)C(C(=O)NCc2ccccc2)c2ccc(Cl)c(Cl)c2)cc1)NO (stereo not shown) [Compound 1h]	18 ± 7	reduction of HDAC1 levels (HDAC1): did not reduce HDAC1 levels
O=C(CCCCCCNC(=O)c1ccc(NC(=O)[C@H]2CC[C@H](CN(C(=O)CCl)C(C(=O)NCc3ccccc3)c3ccc(Cl)c(Cl)c3)CC2)cc1)NO (stereo partly shown) [Compound 1b]	18 ± 3	EC50 antiproliferative activity (MM.1S cells [1]; [4]): diminished antiproliferative activity
